As usually defined, the Emax is the maximal effect, on the per cent scale that the assay sets. The EC50 is the concentration that produces a half-maximal response.

SMILES strings stand for the structures. *1 amine or outer side, *2 acyl side, *3 side chain or, on linkers, in order; H or OH if unused. Where a SMILES comes first, the peptide text is derived from it. Side-chain parts run from the residue outwards. [ ]: non-standard residue; d: D form. The star is where a group is joined. PEG12 = NCCOCCOCCOCCOCCOCCOCCOCCOCCOCCOCCOCCOCCC(=O)O; γGlu = O=C(O)[C@H](CCC(=O)[*:2])N[*:1]; 1Nal = N[C@@H](Cc1cccc2ccccc12)C(=O)O; Stearoyl = CCCCCCCCCCCCCCCCCC(=O)*; Palmitoyl = CCCCCCCCCCCCCCCC(=O)*; Nle = CCCC[C@H](N)C(=O)O; Aib = CC(C)(N)C(=O)O

The values below come from patent US10988523B2, “Modified lipidated Relaxin B chain peptides and their therapeutic use” (Sanofi, priority 2018, dated 2021).

The target of the experiment is T1, RXFP1 (Homo sapiens, UniProt Q9HBX9).
T1 construct: OVCAR5 cells expressing endogenous RXFP1; endogenous in cells; host or cells: OVCAR5 cells
T1 sequence (Q9HBX9 1-757): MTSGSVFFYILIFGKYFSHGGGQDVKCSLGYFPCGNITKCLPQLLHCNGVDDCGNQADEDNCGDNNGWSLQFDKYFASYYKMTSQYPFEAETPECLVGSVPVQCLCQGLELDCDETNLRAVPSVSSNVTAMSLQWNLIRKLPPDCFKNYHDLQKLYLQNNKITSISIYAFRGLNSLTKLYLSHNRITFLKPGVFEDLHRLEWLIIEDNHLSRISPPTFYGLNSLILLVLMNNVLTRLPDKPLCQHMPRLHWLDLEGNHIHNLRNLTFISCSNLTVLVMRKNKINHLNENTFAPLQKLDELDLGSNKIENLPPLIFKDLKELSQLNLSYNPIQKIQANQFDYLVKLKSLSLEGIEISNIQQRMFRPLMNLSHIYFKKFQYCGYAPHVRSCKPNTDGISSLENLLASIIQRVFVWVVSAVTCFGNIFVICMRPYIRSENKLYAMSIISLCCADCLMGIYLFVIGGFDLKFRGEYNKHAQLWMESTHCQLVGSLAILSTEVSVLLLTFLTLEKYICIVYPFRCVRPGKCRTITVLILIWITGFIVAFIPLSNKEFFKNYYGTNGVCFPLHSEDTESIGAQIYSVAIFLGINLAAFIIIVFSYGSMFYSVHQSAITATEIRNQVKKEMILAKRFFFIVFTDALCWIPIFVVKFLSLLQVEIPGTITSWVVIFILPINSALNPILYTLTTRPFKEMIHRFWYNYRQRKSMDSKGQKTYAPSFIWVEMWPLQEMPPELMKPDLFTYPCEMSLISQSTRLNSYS
In words: OVCAR5 cAMP assay (HTRF), RXFP1 agonist activity. The format is cell-based. The note with it: for Emax: OVCAR-5, maximal cAMP relative to H2-relaxin maximum (100%), read-out: EMax, OVCAR 5 cells (cAMP); for EC50: OVCAR5 cells, cAMP HTRF, read-out: EC50 (nM), OVCAR 5 cells (cAMP). The text has this: OVCAR5 cells expressing endogenous RXFP1 were used to test RXP1 agonist properties of peptides of the invention, and in particular of the peptides of sequence SEQ ID NO: 1-193.
Since RXFP1 is a Gs coupled GPCR, cAMP was used as readout of RXFP1 activation.
Isobutyl Methyl Xanthine (IBMX) was used to inhibit phosphodiesterase activity facilitating cAMP measurements. HTRF (Homogenous Time Resolved Fluorescence) technology was used to detect cAMP due to its great sensitivity.
In summary, OVCAR5 were grown in regular medium (RPMI) containing 10% fetal calf serum (FCS) and 1% antibiotics (penicillin/streptomycin).
Before the experiments, cells were detached with accutase and incubated for 40 minutes at 37° C. with 1 mM (3-isobutyl-1-methylxanthine) IBMX.
Cells were then distributed in 384 black well plates containing increasing concentrations of the different peptides in a fix volume of medium (without FCS).
After an incubation of 30 min at 37° C. in an humid incubator in 5% CO2, the reaction was stopped by adding a fixed volume of a solution containing a lysis buffer and cAMP-D2 (cAMP labeled with the dye d2) and the anti cAMP antibody linked to Europium and used for cAMP detection.
Readout of the experiment were performed on a fluorimeter allowing HTRF measurement. Activation curves were generated by plotting the intracellular value of cAMP versus log 10 of the compound concentration.
The 50% activation concentration (EC50) was calculated by nonlinear regression using the sigmoidal dose-response (variable slope) equation with Prism 5 software.
Emax % is determined as the maximal intracellular value of cAMP for test compound (upper limit of cAMP vs concentration curve) divided by the maximal intracellular value of cAMP for H2-relaxin determined in the same test occasion multiplied by 100. Emax %=100×[cAMPtest cpd]/[cAMPH2-RlX]
Background: cAMP levels reflect the balance of adenylyl cyclase and phosphodiesterase activity.

In the case of `CCCCCCCCCCCCCCCCCC(=O)N[C@@H](CCC(=O)NCCCC[C@H](NC(=O)CCOCCOCCOCCOCCOCCOCCOCCOCCOCCOCCOCCOCCNC(=O)[C@H](CCCCN)NC(=O)[C@H](CCCCN)NC(=O)[C@H](CCCNC(=N)N)NC(=O)C(C)(C)NC(=O)[C@H](CO)NC(=O)[C@H](Cc1c[nH]c2ccccc12)NC(=O)[C@@H](NC(=O)[C@H](CO)NC(=O)[C@H](CCCC)NC(=O)CNC(=O)[C@H](CCC(=O)O)NC(=O)C(C)(C)NC(=O)C(C)(C)NC(=O)[C@@H](NC(=O)[C@H](CCC(N)=O)NC(=O)[C@H](C)NC(=O)[C@H](CCCNC(=N)N)NC(=O)[C@@H](NC(=O)[C@H](CCCCN)NC(=O)[C@H](CCC(=O)O)NC(=O)[C@H](CCCNC(=N)N)NC(=O)CNC(=O)[C@H](CCC(=O)O)NC(=O)[C@H](CC(C)C)NC(C)=O)C(C)C)[C@@H](C)CC)[C@@H](C)O)C(N)=O)C(=O)O` [compound 22] (Ac-LEGREKVRAQI[Aib][Aib]EG[Nle]STWS[Aib]RKK[PEG12]K([γGlu-Stearoyl])-NH2), the Emax was found to be 104%.

For the molecule `CCCCCCCCCCCCCCCC(=O)N[C@@H](CCC(=O)N[C@@H](CCC(=O)N[C@@H](CCC(=O)NCCCC[C@H](NC(=O)CCOCCOCCOCCOCCOCCOCCOCCOCCOCCOCCOCCOCCNC(=O)[C@H](CCCCN)NC(=O)[C@H](CCCNC(=N)N)NC(=O)C(C)(C)NC(=O)[C@H](CO)NC(=O)[C@H](Cc1c[nH]c2ccccc12)NC(=O)[C@@H](NC(=O)[C@H](CO)NC(=O)[C@H](CCSC)NC(=O)CNC(=O)[C@H](CCC(=O)O)NC(=O)C(C)(C)NC(=O)C(C)(C)NC(=O)[C@@H](NC(=O)[C@H](CCCCNC(C)=O)NC(=O)[C@H](C)NC(=O)[C@H](CCCNC(=N)N)NC(=O)[C@@H](NC(=O)[C@H](CCCCN)NC(=O)[C@H](CCC(=O)O)NC(=O)[C@H](CCCNC(=N)N)NC(=O)CNC(=O)[C@H](CCC(=O)O)NC(=O)[C@H](CC(C)C)NC(C)=O)C(C)C)[C@@H](C)CC)[C@@H](C)O)C(N)=O)C(=O)O)C(=O)O)C(=O)O` [compound 25] (Ac-LEGREKVRAK(Ac)I[Aib][Aib]EGMSTWS[Aib]RK[PEG12]K([γGlu-γGlu-γGlu-Palmitoyl])-NH2), the EC50 came to 1.21 nM and the Emax came to 95%.

As to `CCCCCCCCCCCCCCCC(=O)N[C@@H](CCC(=O)N[C@@H](CCC(=O)N[C@@H](CCC(=O)NCCCC[C@H](NC(=O)CCOCCOCCOCCOCCOCCOCCOCCOCCOCCOCCOCCOCCNC(=O)[C@H](CCCCNC(C)=O)NC(=O)[C@H](CCCCN)NC(=O)[C@H](CCCNC(=N)N)NC(=O)C(C)(C)NC(=O)[C@H](CO)NC(=O)[C@H](Cc1c[nH]c2ccccc12)NC(=O)[C@@H](NC(=O)[C@H](CO)NC(=O)[C@H](CCCC)NC(=O)CNC(=O)[C@H](CCC(=O)O)NC(=O)C(C)(C)NC(=O)C(C)(C)NC(=O)[C@@H](NC(=O)[C@H](CCC(N)=O)NC(=O)C(C)(C)NC(=O)[C@H](CCCNC(=N)N)NC(=O)[C@@H](NC(=O)[C@H](CCCCN)NC(=O)[C@H](CCC(=O)O)NC(=O)[C@H](CCCNC(=N)N)NC(=O)CNC(=O)[C@H](CCC(=O)O)NC(=O)[C@H](CC(C)C)NC(C)=O)C(C)C)[C@@H](C)CC)[C@@H](C)O)C(N)=O)C(=O)O)C(=O)O)C(=O)O` [compound 28] (Ac-LEGREKVR[Aib]QI[Aib][Aib]EG[Nle]STWS[Aib]RKK(Ac)[PEG12]K([γGlu-γGlu-γGlu-Palmitoyl])-NH2), the Emax was determined as 78%. Consider `CCCCCCCCCCCCCCCC(=O)N[C@@H](CCC(=O)N[C@@H](CCC(=O)N[C@@H](CCC(=O)NCCCC[C@H](NC(=O)CCOCCOCCOCCOCCOCCOCCOCCOCCOCCOCCOCCOCCNC(=O)[C@H](CCCCN)NC(=O)[C@H](CCCNC(=N)N)NC(=O)C(C)(C)NC(=O)[C@H](CO)NC(=O)[C@H](Cc1cccc2ccccc12)NC(=O)[C@@H](NC(=O)[C@H](CO)NC(=O)[C@H](CCCC)NC(=O)CNC(=O)[C@H](CCC(=O)O)NC(=O)C(C)(C)NC(=O)C(C)(C)NC(=O)[C@@H](NC(=O)[C@H](CCCCNC(C)=O)NC(=O)[C@H](C)NC(=O)[C@H](CCCNC(=N)N)NC(=O)[C@@H](NC(=O)[C@H](CCCCN)NC(=O)[C@H](CCC(=O)O)NC(=O)[C@H](CCCNC(=N)N)NC(=O)CNC(=O)[C@H](CCC(=O)O)NC(=O)[C@H](CC(C)C)NC(C)=O)C(C)C)[C@@H](C)CC)[C@@H](C)O)C(N)=O)C(=O)O)C(=O)O)C(=O)O` [compound 29] (Ac-LEGREKVRAK(Ac)I[Aib][Aib]EG[Nle]ST[1Nal]S[Aib]RK[PEG12]K([γGlu-γGlu-γGlu-Palmitoyl])-NH2), for which the Emax was found to be 78%.

Regarding `CCCCCCCCCCCCCCCCCC(=O)N[C@@H](CCC(=O)N[C@@H](CCC(=O)N[C@@H](CCC(=O)NCCCC[C@H](NC(=O)CCOCCOCCOCCOCCOCCOCCOCCOCCOCCOCCOCCOCCNC(=O)[C@H](CCCCN)NC(=O)[C@H](CCCCN)NC(=O)[C@H](CCCNC(=N)N)NC(=O)C(C)(C)NC(=O)[C@H](CO)NC(=O)[C@H](Cc1c[nH]c2ccccc12)NC(=O)[C@@H](NC(=O)[C@H](CO)NC(=O)[C@H](CCCC)NC(=O)CNC(=O)[C@H](CCC(=O)O)NC(=O)C(C)(C)NC(=O)C(C)(C)NC(=O)[C@@H](NC(=O)[C@H](CCC(N)=O)NC(=O)[C@H](C)NC(=O)[C@H](CCCNC(=N)N)NC(=O)[C@@H](NC(=O)[C@H](CCCCN)NC(=O)[C@H](CCC(=O)O)NC(=O)[C@H](CCCNC(=N)N)NC(=O)CNC(=O)[C@H](CCC(=O)O)NC(=O)[C@H](CC(C)C)NC(C)=O)C(C)C)[C@@H](C)CC)[C@@H](C)O)C(N)=O)C(=O)O)C(=O)O)C(=O)O` [compound 31] (Ac-LEGREKVRAQI[Aib][Aib]EG[Nle]STWS[Aib]RKK[PEG12]K([γGlu-γGlu-γGlu-Stearoyl])-NH2), the Emax worked out at 86%. As to `CCCCCCCCCCCCCCCCCC(=O)N[C@@H](CCC(=O)N[C@@H](CCC(=O)N[C@@H](CCC(=O)NCCCC[C@H](NC(=O)CCOCCOCCOCCOCCOCCOCCOCCOCCOCCOCCOCCOCCNC(=O)[C@H](CCCCN)NC(=O)[C@H](CCCCN)NC(=O)[C@H](CCCNC(=N)N)NC(=O)C(C)(C)NC(=O)[C@H](CO)NC(=O)[C@H](Cc1c[nH]c2ccccc12)NC(=O)[C@@H](NC(=O)[C@H](CO)NC(=O)[C@H](CCCC)NC(=O)CNC(=O)[C@H](CCC(=O)O)NC(=O)C(C)(C)NC(=O)C(C)(C)NC(=O)[C@@H](NC(=O)[C@H](CCCCNC(C)=O)NC(=O)[C@H](C)NC(=O)[C@H](CCCNC(=N)N)NC(=O)[C@@H](NC(=O)[C@H](CCCCN)NC(=O)[C@H](CCC(=O)O)NC(=O)[C@H](CCCNC(=N)N)NC(=O)CNC(=O)[C@H](CCC(=O)O)NC(=O)[C@H](CC(C)C)NC(C)=O)C(C)C)[C@@H](C)CC)[C@@H](C)O)C(N)=O)C(=O)O)C(=O)O)C(=O)O` [compound 32] (Ac-LEGREKVRAK(Ac)I[Aib][Aib]EG[Nle]STWS[Aib]RKK[PEG12]K([γGlu-γGlu-γGlu-Stearoyl])-NH2), the EC50 came out at 1.04 nM and the Emax turned out to be 96%.
